Assay results taken from patent publication US6624182B1, “Hydroxyphenylvinylthiazoles” (Ciba Specialty Chemicals Corporation, priority 1999, dated 2003).

Tests used:
Test in all cases: Determination of the minimum inhibitory concentration (MIC value) in microtitre plates
[1] = test system: S. aureus; assay type: cell-based; settings: optical density at 620 nm, 48 hours at 37° C., MIC = ≦20% growth; tested at 100; 10 and 1 ppm (approximate values); (2), (3), (4) at 120; 60; 30; 15; 7.5; 3.75 ppm
Source text: (§1) Determination of the Minimum Inhibitory Concentration (MIC Value) in Microtitre Plates Nutrient Medium Casein/soybean flour/peptone bouillon for the preparation of preliminary cultures of the test bacteria and yeast. Mycological slant agar for the preliminary culture of moulds Examples of Test Microbes: Bacteria: Staphylococcus hominis DMS 20328 Procedure: The test substances are pre-dissolved in dimethyl sulfoxide (DMSO) and tested in a series of dilutions of 1:2. Bacteria and yeast are cultured overnight in CASO bouillon; the mould is cultured on myco-logical slant agar and sponged off with 10 ml of 0.85% sodium chloride solution (+0.1% Triton X-100). All the test microbes are adjusted to a germ count of 1−5×10^6 KBE/ml using 0.85% sodium chloride solution. The test substances are pre-pipetted into microtitre plates in an amount of 8 μl per well. Pre-diluted microbe suspensions are diluted 1:100 in CASO bouillon (bacteria and yeast) or Sabouraud 2% glucose bouillon (mould) and added to the test substances in an amount of 192 μl per well. The test batches are incubated for 48 hours at 37° C. (bacteria and yeast) or for 5 days at 28° C. (mould). After incubation, the growth is determined by means of the clouding of the test batches (optical density) at 620 nm in a microplate reader. The concentration of substance at which (compared with the growth control) a marked inhibition of growth (≦20% growth) of the test microbes can be observed is given as the minimum inhibitory concentration (MIC value). One microtitre plate is used per test microbe and substance concentration. All substances are tested in duplicate.

[2] = test system: E. coli; assay type: cell-based, Escherichia coli NCTC 8196; settings: optical density at 620 nm, 48 hours at 37° C., MIC = ≦20% growth; tested at 100; 10 and 1 ppm (approximate values); (2), (3), (4) at 120; 60; 30; 15; 7.5; 3.75 ppm
Protocol: as §1, with “Escherichia coli NCTC 8196” for “Staphylococcus hominis DMS 20328”

[3] = test system: P. aeruginosa; assay type: cell-based, Pseudomonas aeruginosa CIP A-22; settings: optical density at 620 nm, 48 hours at 37° C., MIC = ≦20% growth; tested at 100; 10 and 1 ppm (approximate values); (2), (3), (4) at 120; 60; 30; 15; 7.5; 3.75 ppm
Protocol: as §1, with “Pseudomonas aeruginosa CIP A-22” for “Staphylococcus hominis DMS 20328”

[4] = test system: C. albicans; assay type: cell-based, Candida albicans ATCC 10231; settings: optical density at 620 nm, 48 hours at 37° C., MIC = ≦20% growth; tested at 100; 10 and 1 ppm (approximate values); (2), (3), (4) at 120; 60; 30; 15; 7.5; 3.75 ppm
Protocol: as §1, with “Yeast: Candida albicans ATCC 10231” for “Bacteria: Staphylococcus hominis DMS 20328”

[5] = test system: A. niger; assay type: cell-based, Aspergillus niger ATCC 6275; settings: optical density at 620 nm, 5 days at 28° C., MIC = ≦20% growth; tested at 100; 10 and 1 ppm (approximate values); (2), (3), (4) at 120; 60; 30; 15; 7.5; 3.75 ppm
Protocol: as §1, with “Mould: Aspergillus niger ATCC 6275” for “Bacteria: Staphylococcus hominis DMS 20328”

MIC values in ppm S. aureus [1] [ppm]	MIC values in ppm E. coli [2] [ppm]	MIC values in ppm P. aeruginosa [3] [ppm]	MIC values in ppm C. albicans [4] [ppm]	MIC values in ppm A. niger [5] [ppm]	Compound
>100	>100	>100	>100	>100	CCc1csc(/C=C/c2cc(C)c(O)c(C)c2)n1 [Compound of formula (47)]
>100	>100	>100	>100	>100	COc1cc(/C=C/c2nc(C(C)(C)C)cs2)ccc1O [Compound of formula (20)]
>100	>100	>100	>100	>100	Cc1cc(/C=C/c2nc(C(C)(C)C)cs2)cc(C)c1O [Compound of formula (23)]
>100	>100	>100	>100	>100	COc1cc(/C=C/c2nc(-c3ccccc3)cs2)cc(O)c1OC [Compound of formula (57)]
>100	>100	>100	>100	>100	CC(C)(C)c1csc(/C=C/c2ccc(OCc3ccccc3)cc2O)n1 [Compound of formula (25)]
>100	>100	>100	>100	>100	CCc1csc(/C=C/c2cc(O)c(OC)c(OC)c2)n1 [Compound of formula (46)]
>100	>100	>100	>100	>100	COc1cc(/C=C/c2nc(C(C)(C)C)cs2)cc(O)c1OC [Compound of formula (22)]

The remaining lines, values behind:

Compound	MIC values in ppm S. aureus [1] [ppm]	MIC values in ppm E. coli [2] [ppm]	MIC values in ppm P. aeruginosa [3] [ppm]	MIC values in ppm C. albicans [4] [ppm]	MIC values in ppm A. niger [5] [ppm]
Oc1ccccc1/C=C/c1nc(-c2ccc(N3CCCC3)cc2)cs1 [Compound of formula (33)]	>100	>100	>100	>100	>100
COc1ccc(/C=C/c2nc(-c3ccccc3)cs2)c(O)c1 [Compound of formula (55)]	>100	>100	>100	>100	>100
COc1cc(O)ccc1/C=C/c1nc(-c2ccc(N3CCCC3)cc2)cs1 [Compound of formula (38)]	>100	>100	>100	>100	>100
COc1cc(O)ccc1/C=C/c1nc(-c2ccccc2)cs1 [Compound of formula (61)]	>100	>100	>100	>100	>100
COc1ccc(/C=C/c2nc(-c3ccccc3)cs2)cc1O [Compound of formula (52)]	>100	>100	>100	>100	>100
Oc1ccccc1/C=C/c1nc(-c2ccccc2)cs1 [Compound of formula (56)]	>100	>100	>100	>100	>100
Cc1cccc(/C=C/c2nc(-c3ccc(N4CCCC4)cc3)cs2)c1O [Compound of formula (36)]	>100	>100	>100	>100	>100
